{
  "source": "patent US8354443B2",
  "about": "“Cyclopropane indolinone derivatives” (Hoffmann-La Roche Inc., priority 2009, dated 2013)",
  "system": "recombinant AMPK proteins (α1β1γ1, α2β1γ1, α1(1-335), α1(1-394) or α2(1-394))",
  "experiment": "Scintillation Proximity Assay (AMPK activation)",
  "assay_type": "biochemical, human",
  "settings": "effective concentration of activator for 50% of maximal enzyme activity; 2 hr at 30° C.; AMPK form not specified",
  "description": "Recombinant human AMPK α1β1γ1, α2β1γ1 or AMPK a subunit truncations α1 (1-335), α1 (1-394) and α2(1-394) were constructed, expressed and purified as described previously (Pang, T., Zhang, Z. S., Gu, M., Qiu, B. Y., Yu, L. F., Cao, P. R., Shao, W., Su, M. B., Li, J. Y., Nan, F. J., and Li, J. (2008) or purchased from Invitrogen (San Diego, Calif., U.S.A.). Rat liver AMPK heterotrimer enzyme was obtained from Upstate (Billerica, Mass., U.S.A.).\nBefore the Scintillation Proximity Assay (SPA) assay, 200 nM recombinant AMPK proteins (α1β1γ1, α2β1γ1, α1(1-335), α1(1-394) or α2(1-394)) were fully phosphorylated as described previously (Pang et al., 2008). SPA reactions were performed in 96-well plates at a final volume of 50 μl containing 20 mM Tris-HCl pH 7.5, 5 mM MgCl2, 1 mM DTT, 2 μM biotin-SAMS, 2 μM ATP, 0.2 μCi/well [γ-^33P]ATP, and various amount of activator. Reactions were initiated by the addition of 50 nM recombinant AMPK proteins to the reaction solutions and incubated at 30° C. for 2 hr. After that, reactions were terminated by the addition of 40 μl stop solution containing 80 μg streptavidin-coated SPA beads per well, 50 mM EDTA, 0.1% Triton X-100 in PBS, pH 7.5 and incubated for 1 hr. Finally, a 160 μl suspension solution containing 2.4 M CsCl, 50 mM EDTA, and 0.1% Triton X-100 in PBS (pH 7.5) was added to the reaction solution to suspend SPA beads completely. SPA signals were determined with a Wallac MicroBeta plate counter (PerkinElmer) 30 min later for calculation of the amount of product formed. The amount of products formed in 2 hr was plotted against activator concentrations to determine the effective concentration of the activator (EC50) required for 50% of maximal enzyme activity.",
  "data": [
    {"smiles": "O=C(O)c1cccc(CN2C(=O)[C@]3(C[C@@H]3c3ccccc3F)c3ccccc32)c1", "note": "(mixture of isomers) [Example 8, (1S,2R) and (1R,2S)-3-((2-(2-fluorophenyl)-2′-oxospiro[cyclopropane-1,3′-indoline]-1′-yl)methyl)benzoic acid]", "values": [
      {"measurement": "EC50", "result": 2770, "unit": "nM"}
    ]},
    {"smiles": "O=C(O)c1cccc(CN2C(=O)[C@]3(C[C@H]3c3ccccc3F)c3ccccc32)c1", "note": "(mixture of isomers) [Example 9, (1S,2S) and (1R,2R)-3-((2-(2-fluorophenyl)-2′-oxospiro[cyclopropane-1,3′-indoline]-1′-yl)methyl)benzoic acid]", "values": [
      {"measurement": "EC50", "result": 1190, "unit": "nM"}
    ]},
    {"smiles": "CN(C)[C@H]1CCN(CCN2C(=O)[C@]3(C[C@@H]3c3ccc(Cl)cc3)c3ccccc32)C1", "note": "(mixture of isomers) [Example 76, (1S,2R)-2-(4-chlorophenyl)-1′-(2-((S)-3-(dimethylamino)pyrrolidin-1-yl)ethyl)spiro[cyclopropane-1,3′-indolin]-2′-one and (1R,2S)-2-(4-chlorophenyl)-1′-(2-((S)-3-(dimethylamino)pyrrolidin-1-yl)ethyl)spiro[cyclopropane-1,3′-indolin]-2′-one]", "values": [
      {"measurement": "EC50", "result": 1090, "unit": "nM"}
    ]},
    {"smiles": "CN(C)[C@@H]1CCN(CCN2C(=O)[C@@]3(C[C@H]3c3ccc(Cl)cc3)c3ccccc32)C1", "note": "(mixture of isomers) [Example 77, (1S,2R)-2-(4-chlorophenyl)-1′-(2-((R)-3-(dimethylamino)pyrrolidin-1-yl)ethyl)spiro[cyclopropane-1,3′-indolin]-2′-one and (1R,2S)-2-(4-chlorophenyl)-1′-(2-((R)-3-(dimethylamino)pyrrolidin-1-yl)ethyl)spiro[cyclopropane-1,3′-indolin]-2′-one]", "values": [
      {"measurement": "EC50", "result": 2170, "unit": "nM"}
    ]},
    {"smiles": "CC1CN(CCNCCN2C(=O)[C@]3(C[C@@H]3c3ccc(Cl)cc3)c3ccccc32)CC(C)O1", "note": "(mixture of isomers) [Example 130, (1S,2R) and (1R,2S)-2-(4-chlorophenyl)-1′-(2-(2-(2,6-dimethylmorpholino)ethylamino)ethyl) Spiro[cyclopropane-1,3′-indolin]-2′-one]", "values": [
      {"measurement": "EC50", "result": 1100, "unit": "nM"}
    ]},
    {"smiles": "O=C(O)c1cccc(CN2C(=O)[C@@]3(C[C@H]3c3ccc(Cl)cc3)c3ccccc32)c1", "note": "(racemic) [Example 1, (1R,2S) and (1S,2R)-3-((2-(4-chlorophenyl)-2′-oxospiro[cyclopropane-1,3′-indoline]-1′-yl)methyl)benzoic acid]", "values": [
      {"measurement": "EC50", "result": 2570, "unit": "nM"}
    ]},
    {"smiles": "O=C(O)c1cccc(CN2C(=O)[C@@]3(C[C@@H]3c3ccc(Cl)cc3)c3ccccc32)c1", "note": "(racemic) [Example 2, (1R,2R) and (1S,2S)-3-((2-(4-chlorophenyl)-2′-oxospiro[cyclopropane-1,3′-indoline]-1′-yl)methyl)benzoic acid]", "values": [
      {"measurement": "EC50", "result": 960, "unit": "nM"}
    ]},
    {"smiles": "O=C(O)c1cccc(CN2C(=O)[C@]3(C[C@@H]3c3cccc(Cl)c3)c3ccccc32)c1", "note": "(racemic) [Example 3, (1S,2R) and (1R,2S)-3-((2-(3-chlorophenyl)-2′-oxospiro[cyclopropane-1,3′-indoline]-1′-yl)methyl)benzoic acid]", "values": [
      {"measurement": "EC50", "result": 2980, "unit": "nM"}
    ]},
    {"smiles": "N#Cc1ccc([C@H]2C[C@]23C(=O)N(Cc2cccc(C(=O)O)c2)c2ccccc23)cc1", "note": "(racemic) [Example 5, (1S,2R) and (1R,2S)-3-((2-(4-cyanophenyl)-2′-oxospiro[cyclopropane-1,3′-indoline]-1′-yl)methyl)benzoic acid]", "values": [
      {"measurement": "EC50", "result": 5300, "unit": "nM"}
    ]},
    {"smiles": "O=C(O)c1cc(CN2C(=O)[C@]3(C[C@@H]3c3ccc(Cl)cc3)c3ccccc32)ccc1Cl", "note": "(racemic) [Example 6, (1S,2R) and (1R,2S)-2-chloro-5-((2-(4-chlorophenyl)-2′-oxospiro[cyclopropane-1,3′-indoline]-1′-yl)methyl)benzoic acid]", "values": [
      {"measurement": "EC50", "result": 7100, "unit": "nM"}
    ]},
    {"smiles": "CS(=O)(=O)c1ccc([C@H]2C[C@]23C(=O)N(Cc2cccc(C(=O)O)c2)c2ccccc23)cc1", "note": "(racemic) [Example 7, (1S,2R) and (1R,2S)-3-((2-(4-(methylsulfonyl)phenyl)-2′-oxospiro[cyclopropane-1,3′-indoline]-1′-yl)methyl)benzoic acid]", "values": [
      {"measurement": "EC50", "result": 10800, "unit": "nM"}
    ]}
  ]
}
